Laboratory results published in ChEMBL document CHEMBL1151522, “Syntheses of homoserine phosphate analogs as potential inhibitors of bacterial threonine synthase” (Bioorg Med Chem Lett, 1994).

How the values were obtained:
[1] = Inhibition of threonine synthase in Escherichia coli; c: indicates No inhibition at 10 mM
Escherichia coli [2] = assay: Inhibition of Escherichia coli threonine synthase expressed as inactivation constant
[3] = Inhibition of threonine synthase in Escherichia coli
Escherichia coli [4] = assay: Inhibition of Escherichia coli threonine synthase expressed as inactivation constant; d: indicates competitive inhibitor

Row | Structure (SMILES) | Ki [1] | K inact (Escherichia coli [2]) [min⁻¹] | Ki [3] [µM] | K inact (Escherichia coli [4])
1 | NC(C/C=C\P(=O)(O)O)C(=O)O (stereo not drawn) | No inhibition |  |  | 
2 | NC(/C=C\CP(=O)(O)O)C(=O)O (stereo not drawn) |  | 1.5 | 100000 | 
3 | NC(CSCP(=O)(O)O)C(=O)O (stereo not drawn) |  |  | 33 | d
4 | NC(/C=C/CP(=O)(O)O)C(=O)O (stereo not drawn) |  | 0.25 | 400 | 
5 | NC(COCP(=O)(O)O)C(=O)O (stereo not drawn) | No inhibition |  |  | 
6 | NC(CC#CP(=O)(O)O)C(=O)O (stereo not drawn) | No inhibition |  |  | 
7 | NC(C/C=C/P(=O)(O)O)C(=O)O (stereo not drawn) |  |  | 540 | Competitive inhibitor
8 | NC(CNCP(=O)(O)O)C(=O)O (stereo not drawn) |  | 1.44 | 59 | 
